Measurements published in the supplement of paper PMC10307832.

Legend:
Test in all cases: relative viability (nuclei count vs DMSO), 5 days (fraction); higher = more cells survive
[1] = compound: CCc1c2c(nc3ccc(OC(=O)N4CCC(N5CCCCC5)CC4)cc13)-c1cc3c(c(=O)n1C2)COC(=O)[C@]3(O)CC [Irinotecan] + N=C(N)NC(=N)NCCc1ccccc1 [Phenformin] (partner 250 µM)
Procedure, shortened: (§1)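 The day after seeding in 1536-well plates, lung cancer cell lines were treated by pin tool with a single drug, or with a fixed anchor-drug dose together with five library-drug doses (not always all listed) in √10 steps. After 5 days, a combined fix-and-stain solution (final 0.05% Triton X-100, 1% formaldehyde, 1 ug/ml Hoechst) was added. Nuclei counted on 4× images gave relative viability as treated counts over vehicle counts, reported as the median of duplicate plates.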

[2] = compound: CCc1c2c(nc3ccc(OC(=O)N4CCC(N5CCCCC5)CC4)cc13)-c1cc3c(c(=O)n1C2)COC(=O)[C@]3(O)CC [Irinotecan] + CC(=O)Nc1cccc(-n2c(=O)n(C3CC3)c(=O)c3c(Nc4ccc(I)cc4F)n(C)c(=O)c(C)c32)c1 [Trametinib] (partner 0.02 µM)
Procedure, shortened: as §1

[3] = compound: CC[C@@H](C)CNCC(=O)N1CCC2=C([C@@H]1COC3=CC=CC(=C3)C)C=CS2 [RU-SKI 43] + COc1cccc2cc(-c3nc([C@H]4CC[C@H](C(=O)O)CC4)n4ncnc(N)c34)[nH]c12 [OSI-027] (partner 0.5 µM)
Procedure, shortened: as §1

[4] = compound: CC[C@@H](C)CNCC(=O)N1CCC2=C([C@@H]1COC3=CC=CC(=C3)C)C=CS2 [RU-SKI 43] + Cc1nc(Nc2ncc(C(=O)Nc3c(C)cccc3Cl)s2)cc(N2CCN(CCO)CC2)n1 [Dasatinib] (partner 0.075 µM)
Procedure, shortened: as §1

| Cell Line | relative viability ([1]; first compound 0.6325 µM) | relative viability ([1]; first compound 2 µM) | relative viability ([1]; first compound 6.325 µM) | relative viability ([1]; first compound 20 µM) | relative viability ([2]; first compound 2 µM) | relative viability ([2]; first compound 6.325 µM) | relative viability ([2]; first compound 20 µM) | relative viability ([3]; first compound 0.1 µM) | relative viability ([3]; first compound 0.3162 µM) | relative viability ([3]; first compound 1 µM) | relative viability ([3]; first compound 3.162 µM) | relative viability ([3]; first compound 10 µM) | relative viability ([4]; first compound 0.1 µM) | relative viability ([4]; first compound 0.3162 µM) | relative viability ([4]; first compound 1 µM) | relative viability ([4]; first compound 3.162 µM) | relative viability ([4]; first compound 10 µM) | relative viability ([2]; first compound 0.6325 µM) |
| --- | --- | --- | --- | --- | --- | --- | --- | --- | --- | --- | --- | --- | --- | --- | --- | --- | --- | --- |
| SW 1573 | 0.32 | 0.425 | 0.248 | 0.146 | 0.432 | 0.138 | 0.0925 | 0.634 | 0.797 | 0.682 | 0.741 | 0.611 | 0.558 | 0.816 | 0.497 | 0.491 | 0.311 | – |
| NCI-H23 | 0.586 | 0.647 | 0.221 | 0.252 | 0.289 | 0.187 | 0.191 | 0.659 | 0.523 | 0.782 | 0.709 | 0.5 | 0.691 | 0.809 | 0.797 | 0.868 | 0.515 | 0.35 |
| NCI-H2342 | 0.614 | 0.59 | 0.554 | 0.418 | 0.89 | 0.786 | 0.494 | 0.541 | 0.594 | 0.622 | 0.641 | 0.62 | 0.34 | 0.313 | 0.321 | 0.319 | 0.317 | 0.872 |
| EMC-BAC-2 | 0.336 | 0.399 | 0.271 | 0.276 | 0.766 | 0.474 | 0.201 | 0.336 | 0.32 | 0.365 | 0.378 | 0.361 | 0.334 | 0.299 | 0.362 | 0.317 | 0.296 | 0.867 |
| EPLC-272H | 0.25 | 0.244 | 0.241 | 0.294 | 0.323 | 0.224 | 0.203 | 0.32 | 0.222 | 0.278 | 0.326 | 0.282 | 0.267 | 0.351 | 0.317 | 0.317 | 0.321 | – |
| EKVX | 0.216 | 0.185 | 0.224 | 0.151 | 0.35 | 0.279 | 0.15 | 0.412 | 0.67 | 0.725 | 0.813 | 0.466 | 0.457 | 0.413 | 0.524 | 0.57 | 0.618 | – |
| HCC-15 | – | 0.331 | 0.183 | 0.12 | 0.233 | 0.179 | 0.174 | 0.733 | 0.805 | 0.75 | 0.803 | 0.625 | 0.709 | 0.635 | 0.689 | 0.633 | 0.64 | 0.325 |
| LXF-289 | 0.5 | 0.46 | 0.262 | 0.162 | 0.328 | 0.268 | 0.197 | 0.776 | 0.874 | 0.951 | 0.827 | 0.733 | 0.217 | 0.21 | 0.218 | 0.231 | 0.187 | 0.653 |
| LK-2 | 0.419 | 0.63 | 0.315 | 0.307 | 0.7 | 0.465 | 0.281 | 0.182 | 0.169 | 0.227 | 0.177 | 0.183 | 0.308 | 0.248 | 0.315 | 0.295 | 0.251 | 0.821 |
